This note sets out measurements from the NIST ThermoML archive (doi:10.1016/j.fluid.2014.01.044).

± gives the expanded uncertainty stated by the source.

In general, mass density refers to the mass of a sample divided by its volume.

A short description of data set [1]: xn = mol fraction of the nth substance listed. The settings on record: 100.2 kPa, Liquid, Pycnometric method.
For data set [2] the following is noted: 100.2 kPa, Liquid, Pycnometric method.

Turning to `CCCCCCCCCC(=O)OCCN1CCN(CCCN2c3ccccc3Sc3ccc(C(F)(F)F)cc32)CC1` + O, the mass density was 1000 ± 5 kg/m3 in data set [1] (298.2 K, x1 = 2.41e-07); 996 ± 6 kg/m3 in data set [1] (303.2 K, x1 = 3.11e-07); 993 ± 13 kg/m3 in data set [1] (308.2 K, x1 = 4.32e-07); 991 ± 2 kg/m3 in data set [1] (313.2 K, x1 = 5.86e-07); 989 ± 2 kg/m3 in data set [1] (318.2 K, x1 = 6.93e-07).

Consider `O` [water], for which the mass density in data set [2] (298.2 K) is given as 1000 ± 2 kg/m3; in data set [2] (303.2 K) it was 996 ± 2 kg/m3; in data set [2] (308.2 K) it was 993 ± 2 kg/m3; in data set [2] (313.2 K), 991 ± 2 kg/m3; in data set [2] (318.2 K) it was 989 ± 2 kg/m3.
